# Experimental data published in US5756813A, “Hindered aromatic ester compounds useful as anti-viral agents” (Uniroyal Chemical Ltd/Uniroyal Chemical Ltee, priority 1996, dated 1998).
# Values joined by “and” are separate entries in the source; they are usually repeats but may differ in a detail not shown here. Identical values can stand only once. Like-named read-outs stand apart in the source and are kept apart here.
# How the values were obtained:
# [1] = test system: T4 lymphocytes (CEM cell line); experiment: Toxicity to uninfected T4 lymphocytes (CEM cell line): 50% inhibition of cell growth (second blank); assay type: cell-based, human; conditions: uninfected CEM cells, no HIV-1, cytotoxicity, replicate tests, read-out: IC50 (concentration that results in 50% inhibition of cell growth)
# Description: (§1) 1) The test compound was dissolved in dimethyl sulfoxide and diluted 1:100 in cell culture medium before serial half-log10 dilutions were prepared. T4 lymphocytes (CEM cell line) were then added to the cell culture medium, and, finally, after a brief interval, HIV-1 was added, resulting in a 1:200 final dilution of the test compound. Uninfected cells in the cell culture medium containing the test compound (i.e., minus HIV-1) were used as a toxicity control, and infected cells in the cell culture medium without the test compound and uninfected cells in the cell culture medium without the test compound, were used as basic controls.
# (§2) 2) The cultures were incubated at 37° C. in a 5% carbon dioxide atmosphere for 6 days.
# (§3) 3) The tetrazolium salt, XTT, was added to all wells, and the cultures were then incubated to allow formazan color development by viable cells.
# (§4) 4) Individual wells were analyzed spectrophotometrically to quantitate formazan production, and were also viewed microscopically for detection of viable cells and confirmation of protective activity.
# (§5) 5) Virus-infected cells exposed to the test compound were compared with noninfected cells exposed to the test compound, and with other appropriate controls (infected cells not exposed to the test compound and noninfected cells not exposed to the test compound, wells containing only the test compound in the cell culture medium, and so on) on the same plate. These are the first and second blanks described below.
# In the second blank, the T4 lymphocytes in cell culture medium and the test compound (with no HIV-1) were incubated together to measure the toxicity of the drug to the cellline. The viability of the cells was measured as a function of concentration of the compound, after incubation for seven days. The concentration of the test compound that results in 50% inhibition of cell growth is defined as its IC50.
# (§6) The compounds were tested to determine their reduction of HIV cytopathic effect on the human cell line CEM. Tests were done by innoculating these cell lines in-well (IW), i.e., the test compound and CEM cells were mixed on a test plate and the virus was added a short time later.
# HIV-1 = experiment: NCI in vitro anti-HIV screen: reduction of HIV-1 cytopathic effect in T4 lymphocytes (CEM cell line), XTT/formazan readout; assay type: cell-based, HIV-1 (in human cell line CEM); conditions: replicate tests; for TI50 (therapeutic index, IC50/EC50): calculated as IC50/EC50, CEM cells
# Description: Representative compounds of this invention were tested for anti-viral activity by subjecting them to standard National Cancer Institute ("NCI") in vitro screening procedures. Two blanks were run with each test. The NCI test for agents active against HIV is designed to detect agents acting at any stage of the virus reproduction cycle.
# In the test assay, small amounts of HIV are added to T4 lymphocyte cells. The assay measures the amount of T4 lymphocytes "killed" by HIV cytolysis. Since a complete cycle of viral reproduction is necessary to "kill" the T4 lymphocyte cells, agents that interfere with viral reproduction will protect the cells from cytolysis.
# The NCI system is automated in several features to accomodate large numbers of candidate agents and is generally designed to detect anti-HIV activity. […] All tests are compared with at least one positive (AZT-treated) control done at the same time under identical conditions.
# as §1, §2, §3, §4, §5
# 6) Data were reviewed in comparison with other tests done at the same time and a determination concerning activity was made. In the first blank, HIV and T4 lymphocytes in cell culture medium, were incubated together to measure the infectivity of the virus. The viability of the cells was measured after holding for six or seven days. In an "effective" test, most cells were infected before the holding period was complete.
# Finally, the protective effects of the test compounds were measured. Each cell culture and test compound were incubated with the virus and the viability of the cells was measured as a function of compound concentration after incubation for six or seven days. The concentration of the test compound that results in 50% "control," i.e., a 50% reduction of the viral cytopathic effect, is defined as its EC50. The therapeutic index TI50 was calculated as IC50 /EC50.
# Concentrations of test compounds required for between 20 and 50% reduction of the viral cytopathic effect can also be determined. Such compounds are classified as moderately active.
# as §6
# [2] = HIV-1 infected CEM cells, in-well (IW) inoculation, six or seven days, read-out: EC50 (concentration that results in 50% reduction of the viral cytopathic effect)
# [3] = Human immunodeficiency virus 1, CCRF-CEM, 168 h, HIV-1 infected CEM cells, in-well (IW) inoculation, six or seven days, read-out: EC50 (concentration that results in 50% reduction of the viral cytopathic effect)
smiles,measurement,setting,value
CC1(OC(=O)c2cc(NC(=O)c3ccccc3)ccc2Cl)CCCC1 [Compound 1],IC50,"[1]; Homo sapiens, CCRF-CEM",41.8 µM
same,IC50,[1],49.5 µM and 32.7 µM and 32 µM
same,EC50,HIV-1; [2],11500 nM and 15200 nM and 17600 nM
same,EC50,HIV-1; [3],17300 nM
same,"TI50 (therapeutic index, IC50/EC50)",HIV-1,2 and 4
CC1(OC(=O)c2cc(NC(=S)c3ccccc3)ccc2Cl)CCCC1 [Compound 2],IC50,"[1]; Homo sapiens, CCRF-CEM",29.4 µM
same,IC50,[1],28.8 µM and 31 µM and 32 µM
same,EC50,HIV-1; [2],216 nM and 232 nM and 398 nM and 598 nM
same,"TI50 (therapeutic index, IC50/EC50)",HIV-1,137 and 124 and 78 and 54
CC1CCCC1OC(=O)c1cc(NC(=S)c2ccccc2)ccc1Cl (stereo not drawn) [Compound 3],IC50,"[1]; Homo sapiens, CCRF-CEM",14.1 µM
same,IC50,[1],12.2 µM and 13.8 µM
same,EC50,HIV-1; [2],86.7 nM and 78.3 nM and 101 nM
same,EC50,HIV-1; [3],96.7 nM
same,"TI50 (therapeutic index, IC50/EC50)",HIV-1,146 and 141 and 180 and 136
CC1CCCC(C)C1OC(=O)c1cc(NC(=S)c2ccccc2)ccc1Cl (stereo not drawn) [Compound 4],IC50,"[1]; Homo sapiens, CCRF-CEM",> 13 µM
same,EC50,HIV-1; [2],940 nM and 2100 nM and 950 nM and 370 nM
same,"TI50 (therapeutic index, IC50/EC50)",HIV-1,> 14 and > 6 and > 35
CC1CCCCC1OC(=O)c1cc(NC(=S)c2ccccc2)ccc1Cl (stereo not drawn) [Compound 5],IC50,"[1]; Homo sapiens, CCRF-CEM",16 µM
same,IC50,[1],14.1 µM and 13.6 µM and 13.4 µM
same,EC50,HIV-1; [2],175 nM and 199 nM and 79.1 nM and 126 nM
same,"TI50 (therapeutic index, IC50/EC50)",HIV-1,92 and 71 and 172 and 107
CC1=C(C(=O)Nc2ccc(Cl)c(C(=O)OC3CCCCC3C)c2)SCCO1 (stereo not drawn) [Compound 6],IC50,"[1]; Homo sapiens, CCRF-CEM",> 24 µM
same,IC50,[1],14 µM and 20 µM
same,"TI50 (therapeutic index, IC50/EC50)",HIV-1,> 1 and > 18 and 19 and 18
CC1CCC(OC(=O)c2cc(NC(=O)c3ccccc3)ccc2Cl)C1 (stereo not drawn) [Compound 7],IC50,"[1]; Homo sapiens, CCRF-CEM",19 µM
same,IC50,[1],11 µM and 17 µM and 14 µM
same,EC50,HIV-1; [2],5800 nM and 3600 nM and 6100 nM
same,EC50,HIV-1; [3],5700 nM
same,"TI50 (therapeutic index, IC50/EC50)",HIV-1,3 and 2 and 5
CC1CCC(OC(=O)c2cc(NC(=S)c3ccccc3)ccc2Cl)C1 (stereo not drawn) [Compound 8],IC50,"[1]; Homo sapiens, CCRF-CEM",14.6 µM
same,IC50,[1],13.5 µM and 14.8 µM and 13.1 µM
same,EC50,HIV-1; [2],195 nM and 184 nM and 181 nM
same,EC50,HIV-1; [3],213 nM
same,"TI50 (therapeutic index, IC50/EC50)",HIV-1,68 and 69 and 80 and 72
"CC1CCCCC1OC(=O)c1cc(NC(=O)c2ccccc2)ccc1Cl (stereo not drawn) [Compound 9, 2-methylcyclohexyl 2-chloro-5-(benzoylamino)benzoate]",IC50,"[1]; Homo sapiens, CCRF-CEM",14.2 µM
same,IC50,[1],12.6 µM and 15.3 µM and 14.5 µM
same,EC50,"HIV-1; Human immunodeficiency virus 1, CCRF-CEM, 168 h, read-out: EC50 (concentration that results in 50% reduction of the viral cytopathic effect), HIV-1 infected CEM cells, in-well (IW) inoculation, six or seven days",4650 nM
same,"TI50 (therapeutic index, IC50/EC50)",HIV-1,31 and 28 and 65
same,EC50,"HIV-1; read-out: EC50 (concentration that results in 50% reduction of the viral cytopathic effect), HIV-1 infected CEM cells, in-well (IW) inoculation, six or seven days",4470 nM and 2370 nM
Cc1ccccc1C(=O)Nc1ccc(Cl)c(C(=O)OC2CCCCC2C)c1 (stereo not drawn) [Compound 10],IC50,"[1]; Homo sapiens, CCRF-CEM",19.7 µM
same,IC50,[1],16.9 µM and 17.1 µM and 16.6 µM
same,EC50,HIV-1; [2],2390 nM and 1750 nM and 1300 nM and 1130 nM
same,"TI50 (therapeutic index, IC50/EC50)",HIV-1,8 and 10 and 13 and 15
Cc1ccccc1C(=S)Nc1ccc(Cl)c(C(=O)OC2CCCCC2C)c1 (stereo not drawn) [Compound 11],IC50,"[1]; Homo sapiens, CCRF-CEM",> 9.4 µM
same,EC50,HIV-1; [2],5400 nM and 4400 nM
same,EC50,HIV-1; [3],5000 nM
same,"TI50 (therapeutic index, IC50/EC50)",HIV-1,> 2
CC(OC(=O)c1cc(NC(=S)c2ccccc2)ccc1Cl)C1CCCC1 (stereo not drawn) [Compound 12],IC50,"[1]; Homo sapiens, CCRF-CEM",> 14 µM
same,EC50,HIV-1; [2],230 nM and 270 nM
same,EC50,HIV-1; [3],280 nM
same,"TI50 (therapeutic index, IC50/EC50)",HIV-1,> 48 and > 60 and > 50
CC(OC(=O)c1cc(NC(=S)c2ccccc2)ccc1Cl)C1CC1 (stereo not drawn) [Compound 13],IC50,"[1]; Homo sapiens, CCRF-CEM",> 38 µM
same,EC50,HIV-1; [2],2100 nM and 2200 nM and 790 nM and 720 nM
same,"TI50 (therapeutic index, IC50/EC50)",HIV-1,> 18 and > 17 and > 48 and > 52
Cc1occc1C(=O)Nc1ccc(Cl)c(C(=O)OC(C)C2CCCC2)c1 (stereo not drawn) [Compound 14],IC50,"[1]; Homo sapiens, CCRF-CEM",7.7 µM
same,IC50,[1],> 14 µM
same,EC50,HIV-1; [2],840 nM and 1100 nM and 770 nM and 2300 nM and 1700 nM
same,"TI50 (therapeutic index, IC50/EC50)",HIV-1,9 and > 13 and > 18 and > 6 and > 8
Cc1occc1C(=O)Nc1ccc(Cl)c(C(=O)OC(C)C2CC2)c1 (stereo not drawn) [Compound 15],IC50,"[1]; Homo sapiens, CCRF-CEM",> 21 µM
same,EC50,HIV-1; [2],1400 nM and 2500 nM and 1100 nM
same,"TI50 (therapeutic index, IC50/EC50)",HIV-1,> 14 and > 8 and > 19
Cc1occc1C(=S)Nc1ccc(Cl)c(C(=O)OC(C)C2CC2)c1 (stereo not drawn) [Compound 16],IC50,"[1]; Homo sapiens, CCRF-CEM",> 20 µM
same,"TI50 (therapeutic index, IC50/EC50)",HIV-1,> 440 and > 240 and > 1600
CC(OC(=O)c1cc(NC(=O)c2cccn2C)ccc1Cl)C1CC1 (stereo not drawn) [Compound 17],IC50,"[1]; Homo sapiens, CCRF-CEM",> 54 µM
same,EC50,HIV-1; [2],5300 nM and 9700 nM and 5000 nM and 4100 nM
same,"TI50 (therapeutic index, IC50/EC50)",HIV-1,> 10 and > 6 and > 11 and > 13
